# Results published in patent publication US8790874B2, “Device for investigation of a flow conduit” (priority 2008, dated 2014).
# Assays:
# Type in all cases: cell-based
# mesenteric arteries [1] = assay: PE dose response of mesenteric arteries, conventional pipette cannulation setup; details: 3.0 μM PE applied to exterior surface, n=5
# From the text: The device may be used to investigate responses of biological flow conduits. […] In this example, PE was applied to the exterior surface of the flow conduit, and the dose of PE was changed in a stepwise fashion.
# mouse mesenteric vessel = assay: Constriction of a mesenteric vessel in the device, single dose of PE; details: 3.0 μM PE, representative tracing
# Method: In another example, the device was used to investigate a mesenteric vessel. […] In this example, a mouse mesenteric vessel was used, and a single does of PE was administered. The PE was applied to the exterior surface of the flow conduit. a) is a representative tracing of a mesenteric vessel's response to 3.0 μM PE, with a sustained constriction of 41.8%, measured in freshly isolated arteries that were immediately subjected to the stimulation with PE. b) is a representative tracing of a single mesenteric vessel kept in culture for 24 hours on the device prior to testing the response to PE, showing a sustained constriction of 41.4% to 3.0 μM PE.
# mouse mesenteric artery = assay: FURA-2 Ca2+ ratiometric measurements on a mesenteric artery fixed on the device; details: stimulation with 3.0 μM PE; return to baseline following washout
# From the text: The smooth muscle cells in the artery are stained.
# mesenteric arteries [2] = assay: PE dose response of mesenteric arteries measured using the device; details: 3.0 μM PE applied to exterior surface, n=5
# From the text: An example process of loading a flow conduit, in this case an artery, into this example embodiment of the device is now described. The device was initially flushed with a Bovine serum albumin (BSA) solution to prevent any unwanted adhesion of arteries to the walls of the main channel or culture chamber. […] As an alternative to the reversible fixation of the artery used here, an irreversible fixation method may be used, as discussed above.
# Upon fixation (e.g., using a reversible fixation method), the lumen of the artery was perfused by operating a syringe pump, connected to an inlet of the culture channel, in the perfusion mode. By connecting the inlet and outlet of the culture channel to different hydrostatic pressure levels, a flow through the culture chamber was achieved while maintain a defined transmural pressure difference across the wall of the artery. A flow through the culture chamber was achieved while maintaining a defined transmural pressure difference (i.e., P1−P3 in FIG. 1) by superfusing the culture chamber with a second syringe pump that operates in the perfusion mode, connected at the inlet of the culture channel. The outlet of the culture channel was thus led to a reduced hydrostatic pressure level. […]
smiles,measurement,setting,value
"CNC[C@H](O)c1cccc(O)c1 [PE, phenylephrine]",maximal outer diameter constriction,mesenteric arteries [1],44.5+/−2.5%
same,sustained constriction,"mouse mesenteric vessel; freshly isolated arteries, immediately stimulated",41.8%
same,sustained constriction,mouse mesenteric vessel; vessel kept in culture for 24 hours on the device before testing,41.4%
same,FURA-2 ratio (F340nm/F380nm),mouse mesenteric artery,increase in FURA-2 ratio
same,maximal outer diameter constriction,mesenteric arteries [2],42.2+/−3.8%
